Data: patent publication US20140287120A1, “ORGANIC COMPOUNDS” (Givaudan S.A, priority 2011, published 2014)

Assay: Taste panel: intensity of umami and salt taste of solution B compared with reference solution A
Settings: 10 ppm in a solution of 0.5% NaCl and 0.03% MSG, compared with solution A without compound; average rating of 4 flavourists; scale -3 (much lower than base) to 3 (much higher than base), 0 = same as base, 1 = slightly higher than base
Experimental: Two solutions were prepared:
A a solution of 0.5% NaCl and 0.03% MSG
B a solution of 0.5% NaCl and 0.03% MSG and 10 ppm Example 1 compound
The samples were tasted by a small group of flavourists (2 male, 2 female, aged between 30 and 60). The intensity of the umami and salt taste of solution B was compared with that of the reference (solution A) and rated according to the following intensity scale:
Taste effect much lower than base: −3
Taste effect lower than base: −2
Taste effect slightly lower than base: −1
Taste effect same as base: 0
Taste effect slightly higher than base: 1
Taste effect higher than base: 2
Taste effect much higher than base: 3
The results (average of rating given by the flavourists) were: […]

CC(N)(CCC(=O)O)C(=O)O (racemic) [DL-2-methylglutamic acid, DL-2-Methylglutamic Acid]
Intensity Taste Salt (NaCl): 1.00
Intensity Taste Umami: 0.00
